From patent publication US20250368666A1, “INDAZOLE COMPOUNDS” (TYRA BIOSCIENCES, INC., priority 2022, published 2025)
Read-outs that look alike come from different tables or passages of the source.

Experiments:
[1] = molecular target: T1, FGFR2 (Homo sapiens, UniProt P21802); assay: Kinase binding assay (kinase-tagged T7 phage, affinity beads, qPCR), Kd; details: read-out: FGFR2 (Kd nM)
T1 construct: made in house; host or cells: E. coli (BL21-derived), T7 phage
Procedure, shortened: (§1)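 Kd obtained by Levenberg–Marquardt Hill-equation fit (slope −1) to qPCR-measured kinase retained on ligand-coated streptavidin beads.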

[2] = system: KATO-III cell line (FGFR2 amplification); assay: Cancer cell line cell viability assay (Cell Titer-Glo), 72 hr; assay type: cell-based; details: Homo sapiens, KATO III
Description: (§2) Experimental Purpose: To detect the change of intracellular ATP by Cell Titer-Glo® and to evaluate the inhibitory effect of the compounds on cancer cell lines by determining the in vitro IC50 value of the compounds.
(§3) Cell Titer-Glo® 2.0 Luminescent cell viability assay reagent was purchased from Promega (Madison, WI). KG-1, KATO-III, and MDA-MB-453 cell lines were purchased from American Type Culture Collection (Manassas, VA). RT112/84 cell line was purchased from Millipore-Sigma (St. Louis, MO). HuH7 cells were purchased from Seikisui Xenotech (Kansas City, KS). RT112/84 and MDA-MB-453 cells were cultured in RPMI1640 media supplemented with 10% fetal bovine serum. KG-1 and KATO-III cell lines were cultured in IMDM media supplemented with 20% FBS. HuH7 cells were cultured in IMDM media supplemented with 10% FBS. Cultures were maintained at 37° C. in a humidified atmosphere of 5% CO2 and 95% air.
(§4) Cell Viability Assay Procedure: Cells were plated in 96-well clear bottom/white plates (Corning #3903) at a range of densities depending on the optimal assay window (5,000-20,000 cells/well in […] of media), incubated overnight. The next day, test compound DMSO stock solutions were made at 10 mM and […] final concentration. Compounds were then added to cells in a 9-dose, 4-fold dilution series starting at 3 μM with an HP 300e Digital Dispenser (each dose was applied in triplicate). DMSO was backfilled to each well up to 301 nL total volume of test compound+DMSO, and a total of 301 nL DMSO was added to a control/no test compound well in triplicate. The cells in cell culture plates were incubated with the compounds at 37° C. and 5% CO2 for 72 hours-120 hours depending on the cell line. Then 50 μl of Cell Titer Glo 2.0 reagent was added to each well of the cell culture plates. The contents were covered from light and mixed on an orbital shaker at room temperature for minimum of 10 min. Luminescence was recorded by a Clariostar Plus Microplate Reader (BMG Labtech, Cary, NC). Cells were assessed as a percentage of DMSO only treated control cells. Curves were plotted and IC50 values were calculated using the GraphPad Prism 9 program based on a sigmoidal dose-response equation (log (inhibitor) vs. response—Variable slope, 4-parameter).

[3] = system: KG-1 cell line (FGFR 1-fusion); assay: as above; assay type: cell-based; details: Homo sapiens, KG-1, KG-1 cell line (FGFR1-fusion)
Description: as §2, §3, §4

[4] = system: RT112/84 cell line (FGFR3-fusion); assay: as above; assay type: cell-based; details: Homo sapiens, RT112/84, RT112/84 cell line (FGFR3-fusion)
Description: as §2, §3, §4

[5] = molecular target: T2, FGFR3 (Homo sapiens, UniProt P22607); assay: Kinase binding assay (kinase-tagged T7 phage, affinity beads, qPCR), Kd; details: read-out: FGFR3 (Kd nM)
T2 construct: made in house; host or cells: E. coli (BL21-derived), T7 phage
T2 sequence (P22607 23-806): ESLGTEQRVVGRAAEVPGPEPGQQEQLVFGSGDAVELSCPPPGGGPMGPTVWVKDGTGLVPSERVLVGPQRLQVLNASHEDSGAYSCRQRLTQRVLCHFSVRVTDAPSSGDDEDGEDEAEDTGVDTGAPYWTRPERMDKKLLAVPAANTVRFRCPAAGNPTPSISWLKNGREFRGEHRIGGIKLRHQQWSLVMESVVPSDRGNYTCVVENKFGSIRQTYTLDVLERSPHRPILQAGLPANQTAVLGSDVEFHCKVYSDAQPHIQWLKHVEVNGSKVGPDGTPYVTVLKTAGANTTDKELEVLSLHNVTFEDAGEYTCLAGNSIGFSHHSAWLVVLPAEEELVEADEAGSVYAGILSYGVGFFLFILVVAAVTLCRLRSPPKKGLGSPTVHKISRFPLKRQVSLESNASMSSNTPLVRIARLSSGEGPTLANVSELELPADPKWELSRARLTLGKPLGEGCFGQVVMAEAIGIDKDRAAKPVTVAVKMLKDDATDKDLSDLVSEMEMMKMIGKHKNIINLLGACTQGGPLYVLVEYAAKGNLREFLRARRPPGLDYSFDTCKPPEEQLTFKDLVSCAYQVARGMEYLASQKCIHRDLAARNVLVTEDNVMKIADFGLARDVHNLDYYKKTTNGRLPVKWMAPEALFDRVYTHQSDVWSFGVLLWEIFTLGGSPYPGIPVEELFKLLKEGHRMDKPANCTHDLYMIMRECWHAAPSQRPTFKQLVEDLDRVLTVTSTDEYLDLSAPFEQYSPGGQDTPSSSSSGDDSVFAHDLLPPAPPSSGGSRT
Procedure, shortened: as §1

[6] = molecular target: T3, FGFR1 (Homo sapiens, UniProt P11362); assay: as above; details: read-out: FGFR1 (Kd nM)
T3 construct: made in house; host or cells: E. coli (BL21-derived), T7 phage
T3 sequence (P11362 22-822): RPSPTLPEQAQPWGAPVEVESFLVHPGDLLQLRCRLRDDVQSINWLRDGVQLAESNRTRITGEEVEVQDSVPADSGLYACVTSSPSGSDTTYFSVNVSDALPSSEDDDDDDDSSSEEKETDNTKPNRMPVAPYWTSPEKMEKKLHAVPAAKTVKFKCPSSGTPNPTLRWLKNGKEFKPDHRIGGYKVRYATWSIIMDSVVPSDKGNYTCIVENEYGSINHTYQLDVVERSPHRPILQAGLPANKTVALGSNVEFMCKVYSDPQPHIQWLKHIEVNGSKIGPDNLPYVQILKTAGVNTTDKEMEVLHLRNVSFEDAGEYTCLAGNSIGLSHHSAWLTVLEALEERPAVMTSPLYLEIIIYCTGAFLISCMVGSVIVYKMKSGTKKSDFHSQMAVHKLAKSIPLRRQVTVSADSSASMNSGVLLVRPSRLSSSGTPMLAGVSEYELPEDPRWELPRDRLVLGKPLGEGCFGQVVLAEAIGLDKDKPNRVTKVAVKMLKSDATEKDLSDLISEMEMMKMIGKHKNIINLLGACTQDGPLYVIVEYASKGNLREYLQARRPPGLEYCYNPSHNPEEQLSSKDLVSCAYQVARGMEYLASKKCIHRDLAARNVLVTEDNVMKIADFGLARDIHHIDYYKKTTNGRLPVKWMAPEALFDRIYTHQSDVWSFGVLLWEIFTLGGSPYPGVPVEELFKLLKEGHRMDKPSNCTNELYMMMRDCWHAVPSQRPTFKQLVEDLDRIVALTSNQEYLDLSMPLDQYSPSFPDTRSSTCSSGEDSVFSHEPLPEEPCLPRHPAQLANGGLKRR
Procedure, shortened: as §1

[7] = kinase binding assay, 11-point 3-fold dilution series

T1 sequence (P21802 22-821): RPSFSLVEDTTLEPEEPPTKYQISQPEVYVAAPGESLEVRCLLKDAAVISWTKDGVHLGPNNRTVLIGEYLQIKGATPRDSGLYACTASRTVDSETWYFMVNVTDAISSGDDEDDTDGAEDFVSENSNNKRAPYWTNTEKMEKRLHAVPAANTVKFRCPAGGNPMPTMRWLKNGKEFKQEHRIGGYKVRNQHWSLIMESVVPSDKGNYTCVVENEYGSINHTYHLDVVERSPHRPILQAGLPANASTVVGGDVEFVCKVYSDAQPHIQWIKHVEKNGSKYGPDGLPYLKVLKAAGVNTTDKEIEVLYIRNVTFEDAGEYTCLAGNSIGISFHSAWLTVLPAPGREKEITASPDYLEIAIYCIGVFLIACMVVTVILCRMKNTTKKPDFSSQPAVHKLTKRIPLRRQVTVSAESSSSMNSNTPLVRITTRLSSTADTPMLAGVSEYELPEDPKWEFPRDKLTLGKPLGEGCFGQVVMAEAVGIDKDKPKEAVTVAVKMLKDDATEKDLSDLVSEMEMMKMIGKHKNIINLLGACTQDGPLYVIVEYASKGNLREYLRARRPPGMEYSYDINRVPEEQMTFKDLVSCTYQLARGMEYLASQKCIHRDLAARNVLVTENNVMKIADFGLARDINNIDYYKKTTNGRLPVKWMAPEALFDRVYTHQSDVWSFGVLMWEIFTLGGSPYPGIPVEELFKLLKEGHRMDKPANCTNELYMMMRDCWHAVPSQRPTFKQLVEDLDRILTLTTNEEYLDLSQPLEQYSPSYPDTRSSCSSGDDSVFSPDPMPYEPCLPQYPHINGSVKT

COc1cc2[nH]nc(-c3cnc(N4CC5(CC5)C4)c(C#N)c3)c2cc1O[C@H](C)c1c(Cl)cncc1Cl [Example 65, 2-(5-azaspiro[2.3]hexan-5-yl)-5-[5-[(1R)-1-(3,5-dichloro-4-pyridyl)ethoxy]-6-methoxy-1H-indazol-3-yl]pyridine-3-carbonitrile]
Kd [1]: 1 to 50 nM | IC50 [2]: > 1000 nM | IC50 [3]: 200 to 1000 nM | IC50 [4]: 0.1 to 50 nM

COc1cc2[nH]nc(-c3cnc(N4CC(C)(N)C4)c(F)c3)c2cc1O[C@H](C)c1c(Cl)cncc1Cl [Example 304, (R)-1-(5-(5-(1-(3,5-dichloropyridin-4-yl)ethoxy)-6-methoxy-1H-indazol-3-yl)-3-fluoropyridin-2-yl)-3-methylazetidin-3-amine]
Kd [5]: 1 to 50 nM | Kd [6]: 1 to 50 nM | IC50 [2]: 0.1 to 50 nM | IC50 [3]: 50 to 200 nM | IC50 [4]: 0.1 to 50 nM

C[C@@H](Oc1ccc2[nH]nc(-c3ccc(N4CC(N)(Cc5ccn(C)n5)C4)nn3)c2c1)c1c(Cl)cncc1Cl [Example 306, (R)-1-(6-(5-(1-(3,5-dichloropyridin-4-yl)ethoxy)-1H-indazol-3-yl)pyridazin-3-yl)-3-((1-methyl-1H-pyrazol-3-yl)methyl)azetidin-3-amine]
Kd [5]: 1 to 50 nM | Kd [6]: 1 to 50 nM | IC50 [2]: 50 to 200 nM | IC50 [3]: 200 to 1000 nM | IC50 [4]: 0.1 to 50 nM

CC(C)OC(=O)C1(N)CN(c2ccc(-c3n[nH]c4ccc(O[C@H](C)c5c(Cl)cncc5Cl)cc34)nn2)C1 [Example 308, (R)-isopropyl 3-amino-1-(6-(5-(1-(3,5-dichloropyridin-4-yl)ethoxy)-1H-indazol-3-yl)pyridazin-3-yl)azetidine-3-carboxylate]
Kd [5]: 1 to 50 nM | Kd [6]: 1 to 50 nM | IC50 [2]: 50 to 200 nM | IC50 [3]: 200 to 1000 nM | IC50 [4]: 0.1 to 50 nM

C[C@@H](Oc1ccc2[nH]nc(-c3ccc(N4CC(C)(NCC(=O)N(C)C)C4)nn3)c2c1)c1c(Cl)cncc1Cl [Example 314, (R)-2-((1-(6-(5-(1-(3,5-dichloropyridin-4-yl)ethoxy)-1H-indazol-3-yl)pyridazin-3-yl)-3-methylazetidin-3-yl)amino)-N,N-dimethylacetamide]
Kd [5]: 1 to 50 nM | Kd [6]: 1 to 50 nM | IC50 [2]: 50 to 200 nM | IC50 [3]: 200 to 1000 nM | IC50 [4]: 0.1 to 50 nM

CCOCC1(N)CN(c2ccc(-c3n[nH]c4ccc(O[C@H](C)c5c(Cl)cncc5Cl)cc34)nn2)C1 [Example 316, (R)-1-(6-(5-(1-(3,5-dichloropyridin-4-yl)ethoxy)-1H-indazol-3-yl)pyridazin-3-yl)-3-(ethoxymethyl)azeti-din-3-amine]
Kd [5]: 1 to 50 nM | Kd [6]: 1 to 50 nM | IC50 [2]: 50 to 200 nM | IC50 [3]: 50 to 200 nM | IC50 [4]: 0.1 to 50 nM

COCC1(N)CN(c2ccc(-c3n[nH]c4ccc(O[C@H](C)c5c(Cl)cncc5Cl)cc34)nn2)C1 [Example 376, (R)-1-(6-(5-(1-(3,5-dichloropyridin-4-yl)ethoxy)-1H-indazol-3-yl)pyridazin-3-yl)-3-(methoxy-methyl)aze-tidin-3-amine]
Kd [5]: 1 to 50 nM | Kd [6]: 1 to 50 nM | IC50 [2]: 50 to 200 nM | IC50 [3]: 200 to 1000 nM | IC50 [4]: 0.1 to 50 nM

CC(C)OCC1(N)CN(c2ccc(-c3n[nH]c4ccc(O[C@H](C)c5c(Cl)cncc5Cl)cc34)nn2)C1 [Example 377, (R)-1-(6-(5-(1-(3,5-dichloropyridin-4-yl)ethoxy)-1H-indazol-3-yl)pyridazin-3-yl)-3-(isopropoxy-methyl)a-zetidin-3-amine]
Kd [5]: 1 to 50 nM | Kd [6]: 1 to 50 nM | IC50 [2]: 50 to 200 nM | IC50 [3]: 200 to 1000 nM | IC50 [4]: 0.1 to 50 nM

CC(C)=CCC1(N)CN(c2ccc(-c3n[nH]c4ccc(O[C@H](C)c5c(Cl)cncc5Cl)cc34)nn2)C1 [Example 378, (R)-1-(6-(5-(1-(3,5-dichloropyridin-4-yl)ethoxy)-1H-indazol-3-yl)pyridazin-3-yl)-3-(3-methylbut-2-en-1-yl)azetidin-3-amine]
Kd [5]: 1 to 50 nM | Kd [6]: 1 to 50 nM | IC50 [2]: 50 to 200 nM | IC50 [3]: > 1000 nM | IC50 [4]: 0.1 to 50 nM

C[C@H](O)CC1(N)CN(c2ncc(-c3n[nH]c4ccc(O[C@H](C)c5c(Cl)cncc5Cl)cc34)cc2F)C1 [Example 384, (S)-1-(3-amino-1-(5-(5-((R)-1-(3,5-dichloropyridin-4-yl)ethoxy)-1H-indazol-3-yl)-3-fluoropyridin-2-yl)azetidin-3-yl)propan-2-ol]
Kd [5, 7]: 1 to 50 nM | Kd [6, 7]: 1 to 50 nM | IC50 [2]: 50 to 200 nM | IC50 [3]: 50 to 200 nM | IC50 [4]: 0.1 to 50 nM

C[C@@H](Oc1ccc2[nH]nc(-c3ccc(N4CCC(N)(CS(C)(=O)=O)CC4)nn3)c2c1)c1c(Cl)cncc1Cl [Example 386, (R)-1-(6-(5-(1-(3,5-dichloropyridin-4-yl)ethoxy)-1H-indazol-3-yl)pyridazin-3-yl)-4-((methylsulfonyl)methyl)piperidin-4-amine]
Kd [5, 7]: 1 to 50 nM | Kd [6, 7]: 1 to 50 nM | IC50 [2]: 0.1 to 50 nM | IC50 [3]: 50 to 200 nM | IC50 [4]: 0.1 to 50 nM

C[C@@H](Oc1ccc2[nH]nc(-c3ccc(N4CC(N)(CS(C)(=O)=O)C4)nn3)c2c1)c1c(Cl)cncc1Cl [Example 387, (R)-1-(6-(5-(1-(3,5-dichloropyridin-4-yl)ethoxy)-1H-indazol-3-yl)pyridazin-3-yl)-3-((methylsulfonyl)meth-yl)azetidin-3-amine]
Kd [5, 7]: 1 to 50 nM | Kd [6, 7]: 1 to 50 nM | IC50 [2]: 50 to 200 nM | IC50 [3]: 200 to 1000 nM | IC50 [4]: 0.1 to 50 nM

C[C@@H](Oc1ccc2[nH]nc(-c3ccc(N4CC(N)(c5ccn(C)n5)C4)nn3)c2c1)c1c(Cl)cncc1Cl [Example 388, (R)-1-(6-(5-(1-(3,5-dichloropyridin-4-yl)ethoxy)-1H-indazol-3-yl)pyridazin-3-yl)-3-(1-methyl-1H-pyrazol-3-yl)azetidin-3-amine]
Kd [5, 7]: 1 to 50 nM | Kd [6, 7]: 1 to 50 nM | IC50 [2]: 50 to 200 nM | IC50 [3]: 200 to 1000 nM | IC50 [4]: 0.1 to 50 nM

CCOCC1(N)CN(c2ncc(-c3n[nH]c4ccc(O[C@H](C)c5c(Cl)cncc5Cl)cc34)cc2F)C1 [Example 390, 1-[5-[5-[(1R)-1-(3,5-dichloro-4-pyridyl)ethoxy]-1H-indazol-3-yl]-3-fluoro-2-pyridyl]-3-(ethoxymethyl)azeti-din-3-amine]
Kd [5, 7]: 1 to 50 nM | Kd [6, 7]: 1 to 50 nM | IC50 [2]: 0.1 to 50 nM | IC50 [3]: 50 to 200 nM | IC50 [4]: 0.1 to 50 nM

C[C@@H](Oc1ccc2[nH]nc(-c3ccc(N4CC(N)(c5ccnn5C)C4)nn3)c2c1)c1c(Cl)cncc1Cl [Example 391, (R)-1-(6-(5-(1-(3,5-dichloropyridin-4-yl)ethoxy)-1H-indazol-3-yl)pyridazin-3-yl)-3-(1-methyl-1H-pyrazol-5-yl)azetidin-3-amine]
Kd [5, 7]: 1 to 50 nM | Kd [6, 7]: 1 to 50 nM | IC50 [2]: 0.1 to 50 nM | IC50 [3]: 50 to 200 nM | IC50 [4]: 0.1 to 50 nM

C[C@@H](Oc1ccc2[nH]nc(-c3cnc(N4CC(N)(c5ccnn5C)C4)c(F)c3)c2c1)c1c(Cl)cncc1Cl [Example 392, (R)-1-(5-(5-(1-(3,5-dichloropyridin-4-yl)ethoxy)-1H-indazol-3-yl)-3-fluoropyridin-2-yl)-3-(1-methyl-1H-pyrazol-5-yl)azetidin-3-amine]
Kd [5, 7]: 1 to 50 nM | Kd [6, 7]: 1 to 50 nM | IC50 [2]: 0.1 to 50 nM | IC50 [3]: 50 to 200 nM | IC50 [4]: 0.1 to 50 nM
